Reference: article PMC8238948, “Potent inhibitors of toxic alpha-synuclein identified via cellular time-resolved FRET biosensors” (NPJ Parkinson's Disease, 2021)
Structures can show the parent of a compound that is named as a salt.

How the values were obtained:
[1] = biological target: T1, labeled αSN (monomeric) (Homo sapiens, UniProt P37840, E130C/T54C); test: smFRET measurements of αSN monomer conformation; details: αSN labeled at 54-130C; +20μM compound; mean ± standard deviation
T1 construct: made in house; host or cells: Escherichia coli BL21(DE3)
Experimental: (§1) SmFRET experiments were performed using two different labeled αSN constructs (residues 9–72 and residues 54–130) that report on intra-monomeric FRET (e.g., monomer conformation) of the N-terminal and C-terminal domains of αSN. […] We were not able to evaluate RO with smFRET, due to interactions of RO with the AlexaFluor-594 label.
(§2) Single-molecule FRET measurements were carried out using ~30 pM of labeled αSN in 20 mM Tris pH 7.4 and 50 mM NaCl in 8-chambered Nunc coverslips (ThermoFisher) passivated with poly(ethylene glycol) poly(L-lysine) to reduce protein adsorption to the chambers. Measurements were made on a MicroTime 200 time-resolved confocal microscope (Picoquant) as described previously. Laser power was adjusted to ~30 μW before sample illumination. Fluorescence emission was collected through the objective and passed through a 150-μm diameter pinhole. Photons were separated by an HQ585LP dichroic in combination with ET525/50M and HQ600LP filters and detected by avalanche photodiodes. Photon traces were collected in 1-ms time bins for 1 h. A cutoff of 25 counts/ms was applied to discriminate between bursts arising from fluorescently labeled protein and background noise. The FRET efficiency (Eeff) was calculated using the SymphoTime 64 software. SmFRET histograms were fit with Gaussian distributions to determine the peak Eeff values. Each measurement was carried out three times and mean Eeff values are the average and SD of these measurements (Supplementary Table 2). Alignment of instrument and analysis were verified using smFRET reference standards consisting of 10, 14, and 18 base pair dsDNA labeled with Alexa 488 and Alex 594 with their 5’ and 3’ ends.

[2] = biological target: T2, labeled αSN (monomeric) (Homo sapiens, UniProt P37840, S9C/T72C); test: smFRET measurements of αSN monomer conformation; details: αSN labeled at 9C-72C; +20μM compound; mean ± standard deviation
T2 construct: made in house; host or cells: Escherichia coli BL21(DE3)
Experimental: as §1, §2

[3] = system: inter-protomeric and intra-protomeric αSN FRET biosensors in HEK293 cells; test: Pilot HTS of the LOPAC library, fluorescence lifetime (FLT) of cellular αSN FRET biosensors; type: cell-based, human; details: 10 µM compound, 90 min; hit = FLT change >5 SD
Experimental: Prior to each pilot HTS, FLT and emission spectrum were measured to verify signal level, basal FRET, coefficient of variance (CV), and similarity index. For each HTS, cells were dispensed into compound plates—1536-well (10 µL/well)—and incubated with the compounds (10 µM) or dimethyl sulfoxide (DMSO; 1%) for 90 min. FLT measurements were acquired with the FLT-PR. After deconvolving the instrument response function, a single exponential fit was used to determine the FLT for both the αSN cellular FRET biosensor (τDA) and the donor-only control biosensor (τD). FRET efficiency was determined by Eq. 1. CV was determined from control plates (N = 384 wells).
Fluorescent compounds (FC) were flagged using a spectral similarity index filter, which evaluates the ratio of intensity from two bandwidths that span the donor emission spectrum and are excluded as potential false positives[45],[46],[49],[51],[66]. […] Compounds that changed FLT by >5 standard deviations (SD) were considered hits (Fig. 5, red data points).
On each day of screening, the compound plates were equilibrated to room temperature (RT; 25 °C). The cells were harvested from the 100-mm plates by incubating with TrypLE (Invitrogen) for 2 min, washed three times in PBS by centrifugation at 200 × g, and filtered using 70-μm cell strainers (BD Falcon). Cell viability prior to screen was assessed using a trypan blue assay and confirmed to be >80%. Cells were diluted to 1.5E6 cells/mL. Expression of GFP-αSN and the αSN biosensors were confirmed by fluorescence microscopy prior to each screen (EvosFL-Auto microscope, Thermo Fisher Scientific, USA). During screening, cells (50 μL/well for 384-well; 10 μL/well for 1536-well) were dispensed by a Multidrop Combi liquid dispenser (Thermo, Pittsburg, PA, USA) into the assay plates containing the compounds and allowed to incubate at RT for 90 min before recording with the FLT-PR or SUPR (both instruments manufactured by Fluorescence Innovations Inc., both owned and provided by Photonic Pharma LLC), as described previously[46].
Interfering compounds were flagged as potential false positives by a set of stringent FC filters based on spectral analysis of each well from the LOPAC screen[45],[46]. After removal of FCs, a histogram of the FLT distribution from all compounds in the screen was plotted and fit to a Gaussian curve to obtain the mean (µ) and SD (σ). A hit was defined as a compound that attenuated the FLT efficiency by >5σ relative to the mean µ (Supplementary Fig. 12).

[4] = biological target: T3, 3FY-αSN (monomeric αSN) (Homo sapiens, UniProt P37840); test: Protein-observed fluorine NMR (PrOF NMR); type: binding; details: for 19F chemical shifts / resonance broadening on titration: 20 μM 3FY-αSN, compound titration
T3 construct: made in house
Experimental: PrOF NMR provides a perturbation-free method to monitor αSN conformation and structure through the incorporation of F19-labeled 3-fluoro-Tyrosine into recombinant protein[89].
Experiments were run on a Bruker 600-MHz Avance NEO (6001), equipped with a 5 mm triple resonance cryoprobe. 3FY-αSN was diluted in PBS, pH = 7.4 buffer by the addition of D2O and 0.1% trifluoroacetic acid (TFA) to final concentrations of 5 and 0.07%, respectively, in a total NMR sample volume of 150 µL. Two one-dimensional ^19F NMR spectra were taken of the protein sample at an O1P of −75 ppm, NS = 16, D1 = 1 s, and AQ = 0.5 s (TFA reference set to −75.25 ppm) and an O1P of −136 ppm, NS = 3072, D1 = 0.6 s, and AQ = 0.05 s (protein resonances). Ligand stock solutions of 1–10 mM were prepared in DMSO and titrated into the protein solutions (20 μM). As a control experiment, in a separate NMR tube, DMSO was added to a final concentration of 0.5, 0.6, 0.8, 1.5, and 2.5% to control for any solvent-induced chemical shifts. For each concentration, a TFA reference spectrum and a protein 1D-^19F NMR spectrum were acquired.
Supplemental Figure 20. PrOF NMR experiments with hit compounds and fluorinated αSN support a lack of binding to monomeric αSN. (a) 19F NMR spectrum and assignments of 3FY- αSN. The resulting spectrum is consistent with the spectrum of monomeric 3FY- αSN reported by 4. Corresponding assignments are used from that report. Stacked 19F NMR spectra with an increasing concentration of (b) Ro 90-7501 and (c) DEM HCl […]
compound binding to monomeric αSN. An exception is at high concentrations of Ro 90-7501(110 μM) a small degree of chemical shift perturbation is observed.
(§3) (1 picture or pasted object on this page, not shown here)

[5] = system: SH-SY5Y cells transfected with unlabeled WT αSN; test: αSN expression levels in SH-SY5Y cells (immunoblot); type: cell-based, human; details: 1 μM compound; relative to DMSO
Experimental: We investigated one potential MOA for compounds RO and DEM in our SH-SY5Y cytotoxicity model. These compounds might rescue αSN-induced cytotoxicity by modulating αSN expression[81],[82]. SH-SY5Y cells transfected with empty-vector or unlabeled WT αSN were treated with DMSO, RO, or DEM at 1 μM concentration. […] This effect may be due to prolonged survival of cells expressing higher levels of αSN, which would be lost in DMSO-treated samples or as a result of shifting monomer:oligomer ratios. Studies have shown that there is a fine balance in αSN expression, where too much can lead to aggregation, but αSN expression can also be neuroprotective[81],[83]–[86].
Supplemental Figure 15. Rescue of αSN-induced cytotoxicity in SH-SY5Y cells is not driven by suppression of αSN expression. One potential MOA for our hit compounds could be reduction of αSN levels, thereby alleviating the αSN induced cytotoxicity. (a) Treatment of SH-SY5Y cells expressing either αSN or […]
DMSO for both RO and DEM. (b) Quantification of a via densitometry analysis.
as §3

| SMILES | Eeff (smFRET efficiency) [1] | Eeff (smFRET efficiency) [2] | identified as hit in the LOPAC screen [3] | 19F chemical shifts / resonance broadening on titration [4] | total αSN expression levels [5] | 19F chemical shift perturbation at high concentration ([4]; 20 µM 3FY-αSN, 110 μM compound) |
| --- | --- | --- | --- | --- | --- | --- |
| COC(=O)C1=C(C)NC(C)=C([N+](=O)[O-])C1c1ccccc1C(F)(F)F (racemic) [BAY, (±)-Bay K 8644] | 0.58 ± 0.005 | 0.54 ± 0.013 | – | – | – | – |
| CN(C)[C@@H]1C(O)=C(C(N)=O)C(=O)[C@@]2(O)C(O)=C3C(=O)c4c(O)ccc(Cl)c4[C@@H](O)[C@H]3C[C@@H]12 [DEM, Demeclocycline HCl] | 0.60 ± 0.008 | 0.55 ± 0.005 | identified | no significant chemical shifts or resonance broadening | no change | – |
| Nc1ccc(-c2nc3ccc(-c4nc5ccc(N)cc5[nH]4)cc3[nH]2)cc1 [RO, Ro 90–7501] | – | – | – | no significant chemical shifts or resonance broadening | no change | small degree of chemical shift perturbation |
